# Laboratory results published in PubChem BioAssay (NCI).
# Several values for one entry are separate records, joined by “and”; a condition that tells them apart may be missing. Identical values can stand only once.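 48-hour exposure; five concentrations; linearly interpolated endpoints. The concentration for 50% growth inhibition is given as GI50. Definition used: TGI = concentration required for complete inhibition of growth.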
# Legend:
# Experiment in all cases: NCI-60 cell line screen, 48 h
# ACHN renal = tested on: ACHN renal
# K-562 leukemia = tested on: K-562 leukemia
# OVCAR-4 ovarian = tested on: OVCAR-4 ovarian
# A498 renal = tested on: A498 renal
# HS 578T breast = tested on: HS 578T breast
# IGROV1 ovarian = tested on: IGROV1 ovarian
# HL-60(TB) leukemia = tested on: HL-60(TB) leukemia
# A549 NSCLC = tested on: A549 NSCLC
# RXF 393 renal = tested on: RXF 393 renal
# MOLT-4 leukemia = tested on: MOLT-4 leukemia
Compound,GI50 (ACHN renal),TGI (ACHN renal),GI50 (K-562 leukemia),TGI (K-562 leukemia),GI50 (OVCAR-4 ovarian),TGI (OVCAR-4 ovarian),GI50 (A498 renal),TGI (A498 renal),GI50 (HS 578T breast),TGI (HS 578T breast),GI50 (IGROV1 ovarian),TGI (IGROV1 ovarian),GI50 (HL-60(TB) leukemia),TGI (HL-60(TB) leukemia),GI50 (A549 NSCLC),TGI (A549 NSCLC),GI50 (RXF 393 renal),TGI (RXF 393 renal),GI50 (MOLT-4 leukemia),TGI (MOLT-4 leukemia)
C[C@@H]1CCC2[C@@H](C)[C@H](OC(=O)CCC(=O)NCCNC(=O)Cc3cc(=O)oc4cc(N(C)C)ccc34)O[C@@H]3O[C@]4(C)CC[C@@H]1C23OO4 (some centres not stated),2.96 µM,17.1 µM,0.348 µM,13.8 µM,11.4 µM,> 100 µM,7.5 µM,> 89.9 µM,3.21 µM,> 33.1 µM,2.55 µM,17.7 µM,0.301 µM,6.77 µM,4.52 µM,23.1 µM,3.45 µM,43.2 µM,1.75 µM,37.9 µM
c1cc(C2N3CCCN2CC3)ccn1 (configuration not stated),–,> 100 µM,–,> 100 µM,–,> 100 µM,–,> 100 µM,–,67.7 µM,–,> 100 µM,–,> 100 µM,–,> 100 µM,–,> 100 µM,–,> 100 µM
CCN1CCN(c2nc(C)cc(N(CCCNc3ccnc4cc(Cl)ccc34)Cc3ccco3)n2)CC1,2.58 µM,6.99 µM,2.3 µM,10.4 µM,3.99 µM,20.7 µM,6.53 µM,49.1 µM,2.87 µM,9.97 µM,3.38 µM,15.4 µM,2.11 µM,5.08 µM,4.51 µM,16.5 µM,1.98 µM,4.23 µM,3.14 µM,16.8 µM
c1ccc([P+](CCC[P+](c2ccccc2)(c2ccccc2)c2ccccc2)(c2ccccc2)c2ccccc2)cc1,–,> 100 µM,4.53 µM,> 100 µM,5.51 µM,> 100 µM,14.6 µM,> 100 µM,11.8 µM,85.4 µM,14 µM,> 100 µM,2.27 µM,36.9 µM and 6.75 µM,14.5 µM,> 100 µM,–,> 100 µM,35.9 µM,> 100 µM
c1cc(-c2cnn3nc(N4CCOCC4)ccc23)nc(NC2CC2)n1,5.7 µM,> 25 µM,> 23.6 µM,> 25 µM,14.9 µM,> 25 µM,5.66 µM,16.6 µM,8.12 µM,> 22.8 µM,10.3 µM,> 25 µM,7.5 µM,18.9 µM,7.87 µM,> 25 µM,4.58 µM,10.8 µM,13.7 µM,> 25 µM
COc1cc(/C=N/O)nc(-c2ccccn2)c1,0.241 µM,12.6 µM,–,> 100 µM,0.255 µM,> 100 µM,0.717 µM,19.4 µM,3.76 µM,> 100 µM,0.349 µM,24.1 µM,0.271 µM,2.81 µM,–,> 100 µM,0.723 µM,14.8 µM,0.281 µM,25.1 µM
COc1cc2c(cc1-c1c(C)noc1C)ncc1[nH]c(=O)n([C@H](C)c3ccccn3)c12,1.2 µM,> 100 µM,0.75 µM,> 100 µM,1.94 µM,> 100 µM,1.55 µM,13.1 µM,0.295 µM,> 100 µM,0.765 µM,> 34.2 µM,0.144 µM,> 100 µM,6.17 µM,> 100 µM,3.3 µM,> 32.1 µM,4.08 µM,99.3 µM
Cc1sc2c(c1C)C(c1ccc(Cl)cc1)=N[C@@H](CC(=O)Nc1ccc(O)cc1)c1nnc(C)n1-2,1.28 µM,29.9 µM,0.499 µM,60.3 µM,0.585 µM,> 67 µM,0.204 µM,2.48 µM,0.169 µM,27.2 µM,2.5 µM,39.9 µM,0.179 µM,8.21 µM,2.6 µM,26.8 µM,1.79 µM,15.5 µM,3.85 µM,54.7 µM
CO[C@@]12[C@H](COC(N)=O)C3=C(C(=O)C(C)=C(N)C3=O)N1C[C@@H]1N[C@@H]12,–,4.88 µM and 1.76 µM,1.52 µM,19.6 µM and 15.6 µM and > 100 µM,4.65 µM,10.5 µM and 10.1 µM and 42.8 µM,1.05 µM,2.68 µM and 2.64 µM,4.21 µM and 5.26 µM,15.3 µM and 14 µM and 52.1 µM,3.24 µM and 1.5 µM,8.88 µM and 8.21 µM and 5.97 µM,0.126 µM,–,–,8.52 µM and 25 µM and 2.78 µM,1.23 µM,6.36 µM and 6.07 µM and 3.77 µM,0.271 µM,–
COC(=O)c1cccc2c1Oc1ccccc1S2,–,> 100 µM,–,> 100 µM,–,> 100 µM,–,> 100 µM,–,> 100 µM,–,> 100 µM,–,28.9 µM,–,> 100 µM,–,> 100 µM,–,70 µM
CSc1ccc(C(=O)/C=C/c2ccc(F)cc2)cc1,> 100 µM,> 100 µM,25.9 µM,65.3 µM,76.2 µM,> 100 µM,26.7 µM,95.5 µM,> 100 µM,> 100 µM,28.2 µM,65.9 µM,48.9 µM,> 100 µM,64.4 µM,> 100 µM,> 100 µM,> 100 µM,33.9 µM,94.4 µM
